Results from ChEMBL document CHEMBL1201861, “Genomics of Drug Sensitity in Cancer screening data, Wellcome Trust Sanger Institute”.

Experiments:
Assay in all cases: cells
A-431 = format: functional, cell-based, Homo sapiens; conditions: Homo sapiens, A-431;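 also: growth inhibition of A-431 cells, determined with a cell viability read-out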
Description: SANGER: Inhibition of human A431 cell growth in a cell viability assay.

SF-295 = format: functional, cell-based, Homo sapiens; conditions: Homo sapiens, SF-295; read-out: IC50;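 also: growth inhibition of SF-295 cells, read out with a cell viability assay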
Description: SANGER: Inhibition of human SF295 cell growth in a cell viability assay.

OE19 = format: functional, cell-based, Homo sapiens; conditions: Homo sapiens, OE19;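 also: growth inhibition of OE19 cells, measured through a cell viability read-out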
Description: SANGER: Inhibition of human OE19 cell growth in a cell viability assay.

LU-99A = format: functional, cell-based, Homo sapiens; conditions: Homo sapiens, LU-99A;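 also: growth inhibition of LU-99A cells, read out with a cell viability assay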
Description: SANGER: Inhibition of human LU-99A cell growth in a cell viability assay.

NCI-H2052 = format: functional, cell-based, Homo sapiens; conditions: Homo sapiens, NCI-H2052;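 also: growth inhibition of NCI-H2052 cells, read out with a cell viability assay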
Description: SANGER: Inhibition of human NCI-H2052 cell growth in a cell viability assay.

ES1 = format: functional, cell-based, Homo sapiens; conditions: Homo sapiens, ES1;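 also: growth inhibition of ES1 cells, read out with a cell viability assay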
Description: SANGER: Inhibition of human ES1 cell growth in a cell viability assay.

HSC-3 = format: functional, cell-based, Homo sapiens; conditions: Homo sapiens, HSC-3
Description: SANGER: Inhibition of human HSC-3 cell growth in a cell viability assay.

A673 = format: functional, cell-based, Homo sapiens; conditions: Homo sapiens, A673;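 also: growth inhibition of human A673 cells, read out through a cell viability assay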
Description: SANGER: Inhibition of human A673 cell growth in a cell viability assay.

Panc1005 = format: functional, cell-based, Homo sapiens; conditions: Homo sapiens, Panc1005;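 also: growth inhibition of human PANC-10-05 cells, measured by a cell viability assay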
Description: SANGER: Inhibition of human PANC-10-05 cell growth in a cell viability assay.

ME-180 = format: functional, cell-based; conditions: Homo sapiens;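 also: cell viability assay measuring growth inhibition of ME-180 cells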
Description: SANGER: Inhibition of human ME-180 cell growth in a cell viability assay.

GCT = format: functional, cell-based, Homo sapiens; conditions: Homo sapiens, GCT;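 also: GCT cell line proliferation inhibition, read out with a cell viability assay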
Description: SANGER: Inhibition of human GCT cell growth in a cell viability assay.

MEG-01 = format: functional, cell-based; conditions: Homo sapiens;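 also: growth inhibition of MEG-01 cells, read out by a cell viability assay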
Description: SANGER: Inhibition of human MEG-01 cell growth in a cell viability assay.

NCI-H226 = format: functional, cell-based, Homo sapiens; conditions: Homo sapiens, NCI-H226;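 also: cell viability read-out used to gauge growth inhibition of the cells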
Description: SANGER: Inhibition of human NCI-H226 cell growth in a cell viability assay.

RERF-LC-MS = format: functional, cell-based, Homo sapiens; conditions: Homo sapiens, RERF-LC-MS;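 also: growth inhibition of human RERF-LC-MS cells, read out by a cell viability assay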
Description: SANGER: Inhibition of human RERF-LC-MS cell growth in a cell viability assay.

MOLT-16 = format: functional, cell-based; conditions: Homo sapiens;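 also: growth inhibition of human MOLT-16 cells, read out with a cell viability assay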
Description: SANGER: Inhibition of human MOLT-16 cell growth in a cell viability assay.

UACC-893 = format: functional, cell-based, Homo sapiens; conditions: Homo sapiens, UACC-893
Description: SANGER: Inhibition of human UACC-893 cell growth in a cell viability assay.

U-87 MG = format: functional, cell-based, U-87MG ATCC; conditions: Homo sapiens;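 also: growth inhibition of the cells measured with a viability assay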
Description: SANGER: Inhibition of human U-87-MG cell growth in a cell viability assay.

SK-MEL3 = format: functional, cell-based, Homo sapiens, SK-MEL-3; conditions: Homo sapiens, SK-MEL3;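 also: growth inhibition of human SK-MEL-3 cells, read out with a cell viability assay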
Description: SANGER: Inhibition of human SK-MEL-3 cell growth in a cell viability assay.

SW-620 = format: functional, cell-based, Homo sapiens; conditions: Homo sapiens, SW-620;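 also: growth inhibition of human SW-620 cells, measured by a cell viability assay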
Description: SANGER: Inhibition of human SW620 cell growth in a cell viability assay.

SW948 = format: functional, cell-based, Homo sapiens; conditions: Homo sapiens, SW948;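 also: growth inhibition of SW948 cells, read out with a cell viability assay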
Description: SANGER: Inhibition of human SW948 cell growth in a cell viability assay.

CAMA-1 = format: functional, cell-based, Homo sapiens; conditions: Homo sapiens, CAMA-1;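 also: growth inhibition of CAMA-1 cells, read out with a cell viability assay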
Description: SANGER: Inhibition of human CAMA-1 cell growth in a cell viability assay.

OAW-28 = format: functional, cell-based, Homo sapiens; conditions: Homo sapiens, OAW-28;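 also: growth inhibition of OAW-28 cells, read out with a cell viability assay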
Description: SANGER: Inhibition of human OAW-28 cell growth in a cell viability assay.

NCI-H520 = format: functional, cell-based, Homo sapiens; conditions: Homo sapiens, NCI-H520;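 also: growth inhibition of NCI-H520 cells, measured by a cell viability assay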
Description: SANGER: Inhibition of human NCI-H520 cell growth in a cell viability assay.

NCI-H1770 = format: functional, cell-based; conditions: Homo sapiens;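 also: growth inhibition of NCI-H1770 cells determined with a viability readout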
Description: SANGER: Inhibition of human NCI-H1770 cell growth in a cell viability assay.

DK-MG = format: functional, cell-based, Homo sapiens; conditions: Homo sapiens, DK-MG;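 also: growth inhibition of DK-MG cells, read out with a cell viability assay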
Description: SANGER: Inhibition of human DK-MG cell growth in a cell viability assay.

D-392MG = format: functional, cell-based, Homo sapiens; conditions: Homo sapiens, D-392MG
SNB-75 = format: functional, cell-based, Homo sapiens; conditions: Homo sapiens, SNB-75;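 also: cell viability assay measuring growth inhibition of human SNB-75 cells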
Description: SANGER: Inhibition of human SNB75 cell growth in a cell viability assay.

LAN-6 = format: functional, cell-based, Homo sapiens; conditions: Homo sapiens, LAN-6;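 also: growth inhibition of LAN-6 cells, determined with a cell viability assay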
Description: SANGER: Inhibition of human LAN-6 cell growth in a cell viability assay.

HT1197 = format: functional, cell-based, Homo sapiens, HT-1197; conditions: Homo sapiens, HT1197
Description: SANGER: Inhibition of human HT-1197 cell growth in a cell viability assay.

U-118-MG = format: functional, cell-based, Homo sapiens; conditions: Homo sapiens, U-118-MG
Description: SANGER: Inhibition of human U-118-MG cell growth in a cell viability assay.

SK-N-FI = format: functional, cell-based, Homo sapiens; conditions: Homo sapiens, SK-N-FI;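 also: cell viability assay measuring growth inhibition of human SK-N-FI cells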
Description: SANGER: Inhibition of human SK-N-FI cell growth in a cell viability assay.

639-V = format: functional, cell-based, Homo sapiens; conditions: Homo sapiens, 639-V;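 also: growth inhibition of 639-V cells, read out with a cell viability assay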
Description: SANGER: Inhibition of human 639-V cell growth in a cell viability assay.

A388 = format: functional, cell-based, Homo sapiens; conditions: Homo sapiens, A388;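 also: growth inhibition of human A388 cells, read out with a cell viability assay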
Description: SANGER: Inhibition of human A388 cell growth in a cell viability assay.

BPH-1 = format: functional, cell-based, Homo sapiens; conditions: Homo sapiens, BPH-1;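 also: cell viability assay measuring growth inhibition of human BPH-1 cells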
Description: SANGER: Inhibition of human BPH-1 cell growth in a cell viability assay.

NCI-H526 = format: functional, cell-based; conditions: Homo sapiens;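 also: growth inhibition of the human NCI-H526 cell line, measured by a cell viability assay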
Description: SANGER: Inhibition of human NCI-H526 cell growth in a cell viability assay.

NCI-H1838 = format: functional, cell-based, Homo sapiens; conditions: Homo sapiens, NCI-H1838;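 also: growth inhibition of NCI-H1838 cells, determined with a cell viability readout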
Description: SANGER: Inhibition of human NCI-H1838 cell growth in a cell viability assay.

L-428 = format: functional, cell-based; conditions: Homo sapiens
Description: SANGER: Inhibition of human L-428 cell growth in a cell viability assay.

LB1047-RCC = format: functional, cell-based, Homo sapiens; conditions: Homo sapiens, LB1047-RCC;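 also: inhibition of cell growth, determined with a cell viability assay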
Description: SANGER: Inhibition of human LB1047-RCC cell growth in a cell viability assay.

HN = format: functional, cell-based, Homo sapiens; conditions: Homo sapiens, HN
Description: SANGER: Inhibition of human HN cell growth in a cell viability assay.

EC-GI-10 = format: functional, cell-based, Homo sapiens; conditions: Homo sapiens, EC-GI-10
Description: SANGER: Inhibition of human EC-GI-10 cell growth in a cell viability assay.

C8166 = format: functional, cell-based; conditions: Homo sapiens;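 also: growth inhibition of human C8166 cells measured by a cell viability assay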
Description: SANGER: Inhibition of human C8166 cell growth in a cell viability assay.

EKVX = format: functional, cell-based, Homo sapiens; conditions: Homo sapiens, EKVX;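 also: growth inhibition of human EKVX cells, read out with a cell viability assay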
Description: SANGER: Inhibition of human EKVX cell growth in a cell viability assay.

KM12 = format: functional, cell-based, Homo sapiens; conditions: Homo sapiens, KM12;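 also: KM12 cell growth inhibition, read out with a cell viability assay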
Description: SANGER: Inhibition of human KM12 cell growth in a cell viability assay.

KYSE-520 cell line = format: functional, cell-based, Homo sapiens; conditions: Homo sapiens, KYSE-520;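 also: growth inhibition of human KYSE-520 cells, read out with a viability assay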
Description: SANGER: Inhibition of human KYSE-520 cell growth in a cell viability assay.

HuTu80 = format: functional, cell-based, Homo sapiens, HUTU-80; conditions: Homo sapiens, HuTu80;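 also: growth inhibition of HuTu80 human cells, determined with a cell viability readout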
Description: SANGER: Inhibition of human HUTU-80 cell growth in a cell viability assay.

NCI-H82 = format: functional, cell-based; conditions: Homo sapiens;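 also: growth inhibition of NCI-H82 cells, measured with a cell viability readout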
Description: SANGER: Inhibition of human NCI-H82 cell growth in a cell viability assay.

HT-3 = format: functional, cell-based, Homo sapiens; conditions: Homo sapiens, HT-3;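 also: growth inhibition measured with a cell viability readout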
Description: SANGER: Inhibition of human HT-3 cell growth in a cell viability assay.

GCIY = format: functional, cell-based, Homo sapiens; conditions: Homo sapiens, GCIY;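 also: growth inhibition of the human GCIY cell line, read out by a cell viability assay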
Description: SANGER: Inhibition of human GCIY cell growth in a cell viability assay.

HCC1187 = format: functional, cell-based, Homo sapiens; conditions: Homo sapiens, HCC1187;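 also: growth inhibition of HCC1187 cells, read out with a cell viability assay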
Description: SANGER: Inhibition of human HCC1187 cell growth in a cell viability assay.

KYSE-180 = format: functional, cell-based, Homo sapiens; conditions: Homo sapiens, KYSE-180;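 also: growth inhibition of KYSE-180 cells, read out with a cell viability assay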
Description: SANGER: Inhibition of human KYSE-180 cell growth in a cell viability assay.

T84 = format: functional, cell-based, Homo sapiens; conditions: Homo sapiens, T84;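 also: growth inhibition measured with a cell viability readout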
Description: SANGER: Inhibition of human T84 cell growth in a cell viability assay.

How did the IC50 (A-431) turn out when COc1cc([C@@H]2c3cc4c(cc3[C@@H](O[C@@H]3O[C@@H]5CO[C@@H](C)O[C@H]5[C@H](O)[C@H]3O)[C@H]3COC(=O)[C@H]23)OCO4)cc(OC)c1O [ETOPOSIDE] was run?
The IC50 was 0.798 µM.

What about the IC50 (SF-295) of the same compound?
Its IC50 is 1.66 µM.

And the IC50 (OE19)?
The IC50 was greater than 16 µM.

What about the IC50 (LU-99A) of the same compound?
Its IC50 is 2.43 µM.

And the IC50 (NCI-H2052)?
The IC50 was 11.5 µM.

What about the IC50 (ES1) of the same compound?
The IC50 was 0.254 µM.

And the IC50 (HSC-3)?
The IC50 was 1.44 µM.

And the IC50 (A673)?
Its IC50 is 2.16 µM.

And the IC50 (Panc1005)?
The IC50 was 2.89 µM.

And the IC50 (ME-180)?
Its IC50 is 0.824 µM.

And the IC50 (GCT)?
Its IC50 is 3.27 µM.

What about the IC50 (MEG-01) of the same compound?
The IC50 was 4.75 µM.

And the IC50 (NCI-H226)?
Its IC50 is 11.2 µM.

What about the IC50 (RERF-LC-MS) of the same compound?
The IC50 was 2.49 µM.

What about the IC50 (MOLT-16) of the same compound?
Its IC50 is 12.5 µM.

What about the IC50 (UACC-893) of the same compound?
Its IC50 is greater than 16 µM.

What about the IC50 (U-87 MG) of the same compound?
The IC50 was greater than 16 µM.

And the IC50 (SK-MEL3)?
Its IC50 is 10.1 µM.

And the IC50 (SW-620)?
The IC50 was 0.384 µM.

And the IC50 (SW948)?
Its IC50 is greater than 16 µM.

What about the IC50 (CAMA-1) of the same compound?
Its IC50 is 13 µM.

What about the IC50 (OAW-28) of the same compound?
The IC50 was 2.15 µM.

What about the IC50 (NCI-H520) of the same compound?
The IC50 was 8.04 µM.

And the IC50 (NCI-H1770)?
Its IC50 is 3.87 µM.

What about the IC50 (DK-MG) of the same compound?
Its IC50 is greater than 16 µM.

What about the IC50 (D-392MG) of the same compound?
Its IC50 is greater than 16 µM.

And the IC50 (SNB-75)?
Its IC50 is 10.9 µM.

What about the IC50 (LAN-6) of the same compound?
Its IC50 is greater than 16 µM.

What about the IC50 (HT1197) of the same compound?
Its IC50 is greater than 16 µM.

What about the IC50 (U-118-MG) of the same compound?
The IC50 was greater than 16 µM.

And the IC50 (SK-N-FI)?
Its IC50 is greater than 16 µM.

And the IC50 (639-V)?
The IC50 was 1.01 µM.

And the IC50 (A388)?
Its IC50 is 3.33 µM.

What about the IC50 (BPH-1) of the same compound?
Its IC50 is 0.943 µM.

And the IC50 (NCI-H526)?
The IC50 was 0.456 µM.

And the IC50 (NCI-H1838)?
Its IC50 is greater than 16 µM.

And the IC50 (L-428)?
The IC50 was 2.99 µM.

And the IC50 (LB1047-RCC)?
Its IC50 is 2.14 µM.

What about the IC50 (HN) of the same compound?
The IC50 was greater than 16 µM.

And the IC50 (EC-GI-10)?
Its IC50 is greater than 16 µM.

What about the IC50 (C8166) of the same compound?
The IC50 was 1.68 µM.

And the IC50 (EKVX)?
The IC50 was greater than 16 µM.

What about the IC50 (KM12) of the same compound?
The IC50 was 1.88 µM.

What about the IC50 (KYSE-520 cell line) of the same compound?
Its IC50 is greater than 16 µM.

And the IC50 (HuTu80)?
The IC50 was 0.217 µM.

What about the IC50 (NCI-H82) of the same compound?
The IC50 was greater than 16 µM.

What about the IC50 (HT-3) of the same compound?
The IC50 was 1.13 µM.

And the IC50 (GCIY)?
Its IC50 is 0.925 µM.

And the IC50 (HCC1187)?
The IC50 was greater than 16 µM.

And the IC50 (KYSE-180)?
The IC50 was 2.07 µM.

And the IC50 (T84)?
The IC50 was greater than 16 µM.

How did the IC50 (A-431) turn out when Cc1cnc(-c2cnc(NCCNc3ccc(C#N)cn3)nc2-c2ccc(Cl)cc2Cl)[nH]1 [LADUVIGLUSIB] was run?
Its IC50 is greater than 2.56 µM.

And the IC50 (SF-295)?
Its IC50 is greater than 2.56 µM.

And the IC50 (OE19)?
Its IC50 is greater than 2.56 µM.

And the IC50 (LU-99A)?
The IC50 was greater than 2.56 µM.

What about the IC50 (NCI-H2052) of the same compound?
Its IC50 is greater than 2.56 µM.

And the IC50 (ES1)?
Its IC50 is greater than 2.56 µM.

What about the IC50 (HSC-3) of the same compound?
The IC50 was greater than 2.56 µM.

What about the IC50 (A673) of the same compound?
Its IC50 is greater than 2.56 µM.

What about the IC50 (Panc1005) of the same compound?
The IC50 was greater than 2.56 µM.

What about the IC50 (ME-180) of the same compound?
The IC50 was greater than 2.56 µM.

What about the IC50 (GCT) of the same compound?
Its IC50 is 0.307 µM.

And the IC50 (MEG-01)?
Its IC50 is greater than 2.56 µM.

And the IC50 (NCI-H226)?
The IC50 was greater than 2.56 µM.

And the IC50 (RERF-LC-MS)?
The IC50 was greater than 2.56 µM.

And the IC50 (MOLT-16)?
The IC50 was greater than 2.56 µM.

What about the IC50 (UACC-893) of the same compound?
The IC50 was greater than 2.56 µM.

And the IC50 (U-87 MG)?
Its IC50 is greater than 2.56 µM.

What about the IC50 (SK-MEL3) of the same compound?
The IC50 was greater than 2.56 µM.

And the IC50 (SW-620)?
The IC50 was greater than 2.56 µM.

And the IC50 (SW948)?
The IC50 was greater than 2.56 µM.

What about the IC50 (CAMA-1) of the same compound?
Its IC50 is greater than 2.56 µM.

And the IC50 (OAW-28)?
The IC50 was greater than 2.56 µM.

What about the IC50 (NCI-H520) of the same compound?
The IC50 was greater than 2.56 µM.

And the IC50 (NCI-H1770)?
Its IC50 is greater than 2.56 µM.

What about the IC50 (DK-MG) of the same compound?
The IC50 was greater than 2.56 µM.

And the IC50 (D-392MG)?
Its IC50 is greater than 2.56 µM.

And the IC50 (SNB-75)?
Its IC50 is greater than 2.56 µM.

And the IC50 (LAN-6)?
Its IC50 is greater than 2.56 µM.

What about the IC50 (HT1197) of the same compound?
Its IC50 is greater than 2.56 µM.

And the IC50 (U-118-MG)?
The IC50 was greater than 2.56 µM.

And the IC50 (SK-N-FI)?
Its IC50 is greater than 2.56 µM.

And the IC50 (639-V)?
Its IC50 is greater than 2.56 µM.

And the IC50 (A388)?
Its IC50 is greater than 2.56 µM.

What about the IC50 (BPH-1) of the same compound?
The IC50 was greater than 2.56 µM.

What about the IC50 (NCI-H526) of the same compound?
Its IC50 is greater than 2.56 µM.

What about the IC50 (NCI-H1838) of the same compound?
The IC50 was greater than 2.56 µM.

And the IC50 (L-428)?
Its IC50 is greater than 2.56 µM.

What about the IC50 (LB1047-RCC) of the same compound?
Its IC50 is greater than 2.56 µM.

What about the IC50 (HN) of the same compound?
The IC50 was greater than 2.56 µM.

What about the IC50 (EC-GI-10) of the same compound?
The IC50 was greater than 2.56 µM.

What about the IC50 (C8166) of the same compound?
The IC50 was greater than 2.56 µM.

And the IC50 (EKVX)?
Its IC50 is greater than 2.56 µM.

And the IC50 (KM12)?
Its IC50 is greater than 2.56 µM.

What about the IC50 (KYSE-520 cell line) of the same compound?
The IC50 was greater than 2.56 µM.

What about the IC50 (HuTu80) of the same compound?
The IC50 was greater than 2.56 µM.

What about the IC50 (NCI-H82) of the same compound?
The IC50 was greater than 2.56 µM.

And the IC50 (HT-3)?
The IC50 was greater than 2.56 µM.

What about the IC50 (GCIY) of the same compound?
The IC50 was greater than 2.56 µM.

And the IC50 (HCC1187)?
Its IC50 is greater than 2.56 µM.

What about the IC50 (KYSE-180) of the same compound?
Its IC50 is 1.73 µM.

What about the IC50 (T84) of the same compound?
The IC50 was greater than 2.56 µM.
